From article PMC10683025, “Discovery of a Hydroxylamine-Based Brain-Penetrant EGFR Inhibitor for Metastatic Non-Small-Cell Lung Cancer” (Journal of Medicinal Chemistry, 2023)
≈ marks a conversion by molar mass, not a printed value. Read-outs that look alike come from different tables or passages of the source.

Assays:
Plasma stability = assay type: in vitro ADME, human; conditions: for Remaining Percentages / t1/2: human plasma; for t1/2: ∞ = no degradation
Outline: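 Compound at 5 μM incubated in human and Sprague-Dawley rat plasma, duplicates; samples at 0, 15, 30, 60 and 120 min analysed by LC-MS/MS. Percent remaining at each time from compound/control peak area ratio relative to the 0 min ratio.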

[1] = Lipophilicity, shake-flask; assay type: physicochemical; conditions: 1-octanol/PBS; 1-octanol and PBS (pH 7.4); read-out: logD7.4
Method: Compound lipophilicity was determined by Pharmaron, Inc. using the shake-flask method with 1-octanol and PBS (pH 7.4). Each compound was assessed in duplicate (n = 2) at 1 μM in a 96-well plate shaken at 25 °C and 2000 rpm for 2 h. Samples were analyzed by liquid chromatography and tandem mass spectrometry (LC-MS/MS).

[2] = Plasma protein binding by equilibrium dialysis; assay type: in vitro ADME
Method: Plasma protein binding and brain tissue binding were determined by Pharmaron, Inc. using the equilibrium dialysis method. […] Following incubation, the samples were analyzed by LC-MS/MS and the concentrations of the compounds were determined in the buffer and plasma solution chambers.

Solubility assay = assay type: physicochemical; conditions: buffer; for solubility at 2 h: read-out: Aq. Solubility; for solubility kinetic at 2 h: pH 7.4, aqueous buffer, read-out: Aq. Sol.
Method: Solubility was determined by Pharmaron, Inc. and each compound was assessed in duplicate (n = 2) by adding 15 μL of compound stock solution (10 mM in DMSO) into a 96-well plate along with 485 μL of buffer followed by shaking at 25 °C, 1100 rpm for 2 h. Wells were filtered, and samples (5 μL) were taken followed by dilution with an equal volume of DMSO (5 μL) and 490 μL of aqueous solution. Samples were analyzed by LC-MS/MS.

hERG = target: T1, hERG (Homo sapiens, UniProt Q12809); assay: hERG manual patch clamp in HEK293; assay type: cell-based; conditions: for IC50: human, HEK293 cells stably transfected with hERG, HEK 293 (+hERG), manual patch clamp
T1 construct: host or cells: HEK293
T1 sequence (Q12809 whole entry): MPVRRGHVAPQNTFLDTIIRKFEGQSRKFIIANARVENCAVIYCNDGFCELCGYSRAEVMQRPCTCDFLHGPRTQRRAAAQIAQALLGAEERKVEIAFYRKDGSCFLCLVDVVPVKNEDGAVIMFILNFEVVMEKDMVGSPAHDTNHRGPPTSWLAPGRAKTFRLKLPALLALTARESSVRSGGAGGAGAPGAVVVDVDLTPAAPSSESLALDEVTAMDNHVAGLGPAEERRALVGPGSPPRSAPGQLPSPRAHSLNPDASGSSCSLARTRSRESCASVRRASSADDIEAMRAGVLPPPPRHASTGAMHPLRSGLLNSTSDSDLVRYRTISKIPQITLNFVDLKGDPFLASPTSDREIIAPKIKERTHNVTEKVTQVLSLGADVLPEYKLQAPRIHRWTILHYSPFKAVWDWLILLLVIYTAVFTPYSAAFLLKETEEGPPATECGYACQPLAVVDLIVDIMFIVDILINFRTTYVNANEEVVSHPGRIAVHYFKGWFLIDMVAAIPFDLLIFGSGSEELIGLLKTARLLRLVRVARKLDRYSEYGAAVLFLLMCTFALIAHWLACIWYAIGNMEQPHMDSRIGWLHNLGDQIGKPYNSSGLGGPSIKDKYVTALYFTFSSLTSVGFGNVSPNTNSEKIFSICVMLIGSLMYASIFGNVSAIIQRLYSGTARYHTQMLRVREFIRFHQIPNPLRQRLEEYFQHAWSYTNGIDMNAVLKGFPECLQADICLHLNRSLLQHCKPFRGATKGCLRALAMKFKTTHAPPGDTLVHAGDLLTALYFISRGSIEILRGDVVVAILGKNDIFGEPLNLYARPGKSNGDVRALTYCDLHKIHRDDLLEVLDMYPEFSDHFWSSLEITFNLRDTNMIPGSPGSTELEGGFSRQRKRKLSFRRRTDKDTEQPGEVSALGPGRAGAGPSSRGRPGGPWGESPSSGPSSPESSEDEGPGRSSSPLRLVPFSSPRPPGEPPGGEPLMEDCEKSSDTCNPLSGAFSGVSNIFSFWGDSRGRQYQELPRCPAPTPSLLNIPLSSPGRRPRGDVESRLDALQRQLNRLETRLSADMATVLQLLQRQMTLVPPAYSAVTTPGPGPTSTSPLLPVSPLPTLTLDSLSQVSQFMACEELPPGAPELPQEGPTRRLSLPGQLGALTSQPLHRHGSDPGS

EGFRL858R [3] = target: T2, EGFRL858R (Homo sapiens, UniProt P00533, L858R); assay: KinaseProfiler enzymatic radiometric assay; assay type: biochemical; parameters: purchased Eurofins Cerep (KinaseProfiler, contract assay); conditions: ATP 10 μM, read-out: EGFR IC50
T2 sequence (P00533 25-1210 L858R): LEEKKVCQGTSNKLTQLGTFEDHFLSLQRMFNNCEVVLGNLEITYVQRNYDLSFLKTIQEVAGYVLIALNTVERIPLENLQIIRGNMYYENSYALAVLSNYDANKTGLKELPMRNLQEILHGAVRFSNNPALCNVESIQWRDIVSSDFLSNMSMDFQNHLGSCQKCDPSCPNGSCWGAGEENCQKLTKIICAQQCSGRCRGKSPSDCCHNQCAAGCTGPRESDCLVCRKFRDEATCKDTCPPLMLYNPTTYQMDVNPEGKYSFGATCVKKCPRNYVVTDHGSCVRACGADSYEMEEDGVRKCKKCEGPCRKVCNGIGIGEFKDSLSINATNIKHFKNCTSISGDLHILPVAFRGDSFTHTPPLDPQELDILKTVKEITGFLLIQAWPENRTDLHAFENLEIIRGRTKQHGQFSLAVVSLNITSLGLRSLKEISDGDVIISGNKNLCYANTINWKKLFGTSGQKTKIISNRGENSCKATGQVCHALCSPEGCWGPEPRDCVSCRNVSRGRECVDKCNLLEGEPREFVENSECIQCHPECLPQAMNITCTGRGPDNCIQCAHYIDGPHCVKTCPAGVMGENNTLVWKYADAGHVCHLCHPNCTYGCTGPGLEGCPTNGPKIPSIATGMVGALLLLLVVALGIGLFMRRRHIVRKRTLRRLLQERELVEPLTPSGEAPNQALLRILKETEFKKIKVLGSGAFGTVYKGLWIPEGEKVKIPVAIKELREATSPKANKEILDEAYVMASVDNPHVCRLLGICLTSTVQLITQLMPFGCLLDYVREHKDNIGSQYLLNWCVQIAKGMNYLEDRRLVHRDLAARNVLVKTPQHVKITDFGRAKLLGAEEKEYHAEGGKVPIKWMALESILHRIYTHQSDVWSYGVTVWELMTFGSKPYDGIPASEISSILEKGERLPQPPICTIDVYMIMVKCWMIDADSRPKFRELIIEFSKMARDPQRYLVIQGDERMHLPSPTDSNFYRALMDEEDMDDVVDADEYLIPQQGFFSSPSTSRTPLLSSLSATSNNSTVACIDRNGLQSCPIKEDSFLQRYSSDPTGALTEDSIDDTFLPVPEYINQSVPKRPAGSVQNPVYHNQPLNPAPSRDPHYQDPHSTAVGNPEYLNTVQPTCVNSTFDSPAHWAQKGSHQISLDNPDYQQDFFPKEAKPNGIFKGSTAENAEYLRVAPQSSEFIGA
Method: (§1) In vitro kinase activity (inhibitor binding constants (Kd) and biochemical inhibition (IC50’s)) were assessed by Eurofins DiscoverX (Kd determinations) and Eurofins Cerep (biochemical IC50 determinations).

EGFRwt [4] = target: T3, EGFRwt (Homo sapiens, UniProt P00533); assay: KINOMEScan KdELECT Kd determination; assay type: binding; conditions: wt; read-out: EGFR Kd
T3 construct: purchased Eurofins DiscoverX (contract assay)
T3 sequence (P00533 25-1210): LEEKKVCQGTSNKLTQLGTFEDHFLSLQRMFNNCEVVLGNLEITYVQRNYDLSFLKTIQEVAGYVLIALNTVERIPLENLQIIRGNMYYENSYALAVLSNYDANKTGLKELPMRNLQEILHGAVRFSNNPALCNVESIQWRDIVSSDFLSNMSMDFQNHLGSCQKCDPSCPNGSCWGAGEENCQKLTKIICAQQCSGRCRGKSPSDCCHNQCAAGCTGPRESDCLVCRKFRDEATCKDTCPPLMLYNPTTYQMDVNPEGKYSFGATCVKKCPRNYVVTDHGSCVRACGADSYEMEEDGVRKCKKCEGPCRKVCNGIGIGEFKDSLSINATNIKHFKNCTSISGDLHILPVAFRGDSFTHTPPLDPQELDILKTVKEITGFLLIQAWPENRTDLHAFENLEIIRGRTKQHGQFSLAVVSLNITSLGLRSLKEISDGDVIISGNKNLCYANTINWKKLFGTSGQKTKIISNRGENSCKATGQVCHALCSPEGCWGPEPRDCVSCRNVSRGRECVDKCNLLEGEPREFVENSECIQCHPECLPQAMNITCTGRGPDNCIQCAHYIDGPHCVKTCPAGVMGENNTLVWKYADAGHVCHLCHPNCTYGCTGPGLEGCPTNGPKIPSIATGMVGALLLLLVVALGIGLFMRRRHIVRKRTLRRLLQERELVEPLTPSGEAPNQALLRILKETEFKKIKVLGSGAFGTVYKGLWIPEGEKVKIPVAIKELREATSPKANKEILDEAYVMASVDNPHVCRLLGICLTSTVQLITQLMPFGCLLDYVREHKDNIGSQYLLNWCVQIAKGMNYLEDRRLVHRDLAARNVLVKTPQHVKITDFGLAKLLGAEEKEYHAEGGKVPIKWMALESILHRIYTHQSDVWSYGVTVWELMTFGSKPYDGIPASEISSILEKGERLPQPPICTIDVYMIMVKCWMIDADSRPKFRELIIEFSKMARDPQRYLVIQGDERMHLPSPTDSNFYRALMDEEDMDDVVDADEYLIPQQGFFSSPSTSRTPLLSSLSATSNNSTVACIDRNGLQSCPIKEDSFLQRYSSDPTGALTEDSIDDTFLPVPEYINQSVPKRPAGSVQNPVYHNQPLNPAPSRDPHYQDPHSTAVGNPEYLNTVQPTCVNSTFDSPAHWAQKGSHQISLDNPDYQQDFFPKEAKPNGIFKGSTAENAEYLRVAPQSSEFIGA
Method: as §1

[5] = system: HCC827 (EGFR mutation = exon19del); assay: CellTiter-Glo cell viability assay; assay type: cell-based, human; conditions: Homo sapiens, HCC827; 72 h, unadjusted for FBS
Method: The NCI-H3255 cell line was obtained from CoBioer. […] NCI-H3255 cells were cultured in BEGM (Lonza) with 10% FBS. […] All cells were cultured in a humidified incubator with 5% CO2 at 37 °C.
Viability assays using A431, HCC827, NCI-H1975, NCI-H3255, Ba/F3 EGFR-del E746_A750/C797S, Ba/F3 EGFR-L858R/C797S, AU565, SK-BR-3, and ZR-75-30 cells were performed at Crown BioScience.

Pharmacokinetic study = assay type: in vivo, Sprague-Dawley rats
Method: Animal experiments were performed at Pharmaron, Inc. and animal use was approved by Pharmaron’s Institutional Animal Care and Use Committee (IACUC) in Pharmaron (Pharmaron IACUC, Protocol #PK-M-07182022, #PK-R-06012022, and #ON-CELL-XEN-06012022) following the guidance of AAALAC. Six- to eight-week-old male Sprague-Dawley rats (approximately 200–300 g) obtained from Si Bei Fu Laboratory Animal Technology Co., six- to eight-week-old male CD1 mice (approximately 20–30 g) obtained from Si Bei Fu Laboratory Animal Technology Co., and six- to eight-week-old female BALB/c nude mice (approximately 20–30 g) obtained from Si Bei Fu Laboratory Animal Technology Co., were used in the pharmacokinetic studies. Six- to eight-week-old female BALB/c nude mice (approximately 18–22 g) obtained from Beijing Anikeeper Biotech Co., Ltd. were used in the intracranial PDX study. Animals were housed at 20–25 °C with humidity ranging from 40 to 70% relative humidity, were exposed to 12 h light and dark cycles, and were supplied with food and water ab libitum.
Approximately 0.03 mL of blood was collected from the dorsal metatarsal vein (in the case of CD1 mice), 0.03 mL of blood from the orbit vein (in the case of BALB/c nude mice), or 0.2 mL of blood from the jugular vein (in the case of Sprague-Dawley rats) at each time point. Blood at each sampling point was transferred into a plastic micro centrifuge tube containing K2-EDTA, and collection tubes with blood samples and anticoagulant were inverted several times for proper mixing of the tube contents and placed on ice prior to centrifugation for plasma. Blood samples were centrifuged at 4 °C, 4000g for 5 min to obtain plasma. Samples were stored in a freezer at −75 °C prior to analysis. Concentrations of test articles in the plasma samples were determined using LC-MS/MS and WinNonlin 8.3 (Phoenix) was used for pharmacokinetic calculations. The values obtained were plotted on GraphPad Prism software and are presented as mean ± SD.

[6] = Metabolic stability in hepatocytes; assay type: in vitro ADME, Sprague-Dawley rat; conditions: for hepatocyte CLint at 2 h, 1 µM / half-life at 2 h, 1 µM: Sprague-Dawley, rat, hepatocytes; for half-life at 2 h, 1 µM: read-out: HEP t1/2; for Remaining Percentages: rat hepatocytes
Method: Microsome stability was assessed in duplicate (n = 2) in the presence and absence of nicotinamide adenine dinucleotide phosphate (NADPH) with liver microsomes (0.5 mg/mL) from human (BD Gentest) and Sprague-Dawley rats (BD Gentest). Compounds were incubated in liver microsomes at 1 μM and samples (30 μL) were taken at 0.5, 15, 30, 45, and 60 min time points for analysis by LC-MS/MS. Hepatocyte stability was assessed in duplicate (n = 2) at a working cell density of 0.5 × 10^6 cells/mL with hepatocytes from human (BiolVT), Sprague-Dawley rat (BiolVT), cynomolgus monkey (RILD) or beagle dog (BiolVT). […] The in vitro half-life and intrinsic clearances were determined as previously described.[76]
In vitro half-life (in vitro t1/2) was determined from the slope value in [drawing 1] where k was determined by linear regression of the natural logarithm of the remaining percentage of the parent drug vs the incubation time curve.

EGFRwt [7] = target: T3, EGFRwt; assay: KinaseProfiler enzymatic radiometric assay; assay type: biochemical; conditions: wt, ATP 10 μM; read-out: EGFR IC50
Method: as §1

EGFRL858R [8] = target: T2, EGFRL858R; assay: KINOMEScan KdELECT Kd determination; assay type: binding; parameters: purchased Eurofins DiscoverX (contract assay); conditions: L858R
Method: as §1

[9] = Sprague-Dawley, rat, plasma, 5 μM, read-out: fu,plasma% / %Unbound
[10] = Sprague-Dawley, rat, rat plasma
[11] = Sprague-Dawley, rat, rat plasma, read-out: %Bound (converted)
[12] = human, human plasma, read-out: fu,plasma% / %Unbound (converted)
[13] = plasma, human, 5 μM, read-out: fu,plasma% / %Unbound (converted)
[14] = male, Sprague-Dawley, plasma, Rat 2 mg/kg (IV)
[15] = male, Sprague-Dawley, plasma, Rat 20 mg/kg (PO)
[16] = male, Sprague-Dawley, plasma, rat, 1 mg/kg IV and 5 mg/kg PO dosing (route of value not stated)

With `COc1cc2ncnc(Nc3cccc(Cl)c3F)c2cc1OCCON1CCN(C)CC1` [Compound 9, N-(3-Chloro-2-fluorophenyl)-7-methoxy-6-(2-((4-methylpiperazin-1-yl)oxy)ethoxy)quinazolin-4-amine] the “Remaining Percentages” value (Plasma stability; 15 min) was 93.43%, the “Remaining Percentages” value (Plasma stability; 30 min) was 92.26% and the “Remaining Percentages” value (Plasma stability; 60 min) was 97.47%. For the same molecule, the “Remaining Percentages” value (Plasma stability; 120 min) was 92.38%, the t1/2 (Plasma stability) was “∞” and the remaining at 5 μM (Plasma stability; human, plasma) was over 90%. The logD at 2 h, 1 µM [1] was 2.8, the fraction unbound at 6 h, 5 μM [2, 9] was 0.128 and the recovery at 6 h, 5 μM [2, 10] was 106%. The remaining at 6 h, 5 μM [2, 10] was 99.6%, the fraction unbound at 6 h, 5 μM [2, 11] was 0.128 and the recovery at 6 h, 5 μM ([2]; human, human plasma) was 101%. The remaining at 6 h, 5 μM ([2]; human, human plasma) was 102%, the fraction unbound at 6 h, 5 μM [2, 12] was 0.0442 and the fraction unbound at 6 h, 5 µM ([2]; plasma, human, 5 μM, read-out: fu,plasma% / %Unbound) was 0.044. For the same molecule, the fraction unbound at 6 h, 5 μM [2, 13] was 0.0442, the “fu,plasma% / %Unbound” value ([2]; rat, 5 μM) was 12.75% and the solubility at 2 h (Solubility assay; pH 1.2) was over 300 µM. For the same molecule, the solubility at 2 h (Solubility assay; pH 6.8) was 262 µM (≈ 121 µg/mL), the solubility kinetic at 2 h (Solubility assay) was 199 µM (≈ 91.9 µg/mL) and the “%hERG inhibition” value (hERG; 1 μM) was 17%. For the same molecule, the IC50 (hERG) was 6480 nM, the IC50 (EGFRL858R [3]) was 2 nM and the Kd (EGFRwt [4]) was under 0.2 nM. The IC50 [5] was 3.1 nM, the “adverse events or signs of toxicity” value (Pharmacokinetic study; Sprague-Dawley rats at the tested PK doses) was “No adverse events or signs of toxicity were observed” and the clearance at 24 h (Pharmacokinetic study; [14]) was 59.6 ± 22.2 mL/min/kg. It also gave a half-life at 24 h (Pharmacokinetic study; [14]) of 2.4 ± 1.07 h, a Vd at 24 h (Pharmacokinetic study; male, Sprague-Dawley, plasma, Rat 2 mg/kg (IV), read-out: Vss) of 6.67 L/kg and a Cmax at 24 h (Pharmacokinetic study; [15]) of 653 ± 106 nM. It also gave a Tmax at 24 h (Pharmacokinetic study; [15]) of 2 h, a bioavailability at 24 h (Pharmacokinetic study; [15]) of 64% and a half-life at 24 h (Pharmacokinetic study; [15]) of 2.37 h. The AUC(0-inf) at 24 h (Pharmacokinetic study; [16]) was 279 ng·h/mL, the half-life at 24 h (Pharmacokinetic study; [16]) was 2.29 h and the AUC(0-inf) (Pharmacokinetic study; male, Sprague-Dawley, plasma, rat, 20 mg/kg PO) was 3910 ng·h/mL. For the same molecule, the hepatocyte CLint at 2 h, 1 µM [6] was 70 µL/min/1e6 cells, the half-life at 2 h, 1 µM [6] was 0.328 h and the “Remaining Percentages” value ([6]; 15 min) was 47.58%. For the same molecule, the “Remaining Percentages” value ([6]; 30 min) was 28.51%, the “Remaining Percentages” value ([6]; 60 min) was 11.71% and the “Remaining Percentages” value ([6]; 90 min) was 4.98%. The “Remaining Percentages” value ([6]; 120 min) was 2.53%, the IC50 (EGFRwt [7]) was 3 nM and the Kd (EGFRL858R [8]) was under 0.2 nM.

For `COc1cc2ncnc(Nc3cccc(Cl)c3F)c2cc1OCCON1CCOCC1` [Compound 7, N-(3-Chloro-2-fluorophenyl)-7-methoxy-6-(2-(morpholinooxy)ethoxy)quinazolin-4-amine], the “Remaining Percentages” value (Plasma stability; 15 min) was 100.68%, the “Remaining Percentages” value (Plasma stability; 30 min) was 93.61% and the “Remaining Percentages” value (Plasma stability; 60 min) was 100.91%. For the same molecule, the “Remaining Percentages” value (Plasma stability; 120 min) was 97.91%, the t1/2 (Plasma stability) was “∞” and the logD at 2 h, 1 µM [1] was 3.4. It also gave a fraction unbound at 6 h, 5 μM [2, 9] of 0.105, a recovery at 6 h, 5 μM [2, 10] of 110% and a remaining at 6 h, 5 μM [2, 10] of 101%. For the same molecule, the fraction unbound at 6 h, 5 μM [2, 11] was 0.105, the recovery at 6 h, 5 μM ([2]; human, human plasma) was 98.9% and the remaining at 6 h, 5 μM ([2]; human, human plasma) was 99.4%. For the same molecule, the fraction unbound at 6 h, 5 μM [2, 12] was 0.0412, the fraction unbound at 6 h, 5 μM [2, 13] was 0.0412 and the solubility kinetic at 2 h (Solubility assay) was 36 µM (≈ 16.2 µg/mL). It also gave an IC50 (hERG) of 8480 ± 3500 nM, an IC50 (EGFRL858R [3]) of 1 nM and a Kd (EGFRwt [4]) of under 0.2 nM. For the same molecule, the IC50 [5] was 0.31 nM, the AUC(0-inf) at 24 h (Pharmacokinetic study; [16]) was 89 ng·h/mL and the half-life at 24 h (Pharmacokinetic study; [16]) was 0.56 h. The hepatocyte CLint at 2 h, 1 µM [6] was 126 µL/min/1e6 cells, the half-life at 2 h, 1 µM [6] was 0.183 h and the “Remaining Percentages” value ([6]; 15 min) was 38.18%. For the same molecule, the “Remaining Percentages” value ([6]; 30 min) was 15.61%, the “Remaining Percentages” value ([6]; 60 min) was 2.48% and the “Remaining Percentages” value ([6]; 90 min) was 0.92%. The “Remaining Percentages” value ([6]; 120 min) was 0.74%, the IC50 (EGFRwt [7]) was 3 nM and the Kd (EGFRL858R [8]) was under 0.2 nM.
